In US11400057B2, “Treatment of vulvar pain” (University of Rochester, priority 2018, dated 2022):
Entries after “also recorded” stand apart in the source; their conditions may differ.

Columns and labels:
[1] = test system: PGE2 production from mouse vulvar tissue; assay: Mouse vulvar explants (4 mm punch biopsy) stimulated with IL-1β: PGE2 production; assay type: cell-based; conditions: FIG. 5
Experimental: FIG. 5 is a diagram showing that compounds of Formula (I) (F (I)) inhibit PGE2 production from mouse vulvar tissue. Mouse vulvar tissue (4 mm punch biopsies) was collected and bisected then pre-treated in culture medium with either Maresin 1 at indicated concentrations for 18 hours, followed by an additional 18 hours stimulation with IL-1β (10 pg/ml). Culture medium was collected and analyzed for PGE2 content. Mean+/−SEM; n=3 replicate cultures. ANOVA * p<0.05 vs. vehicle.
Inventors first confirmed that mouse vulvar tissues responded to compounds of Formula (I) treatment in vitro by culturing mouse vulvar explants (4 mm punch biopsy). The explants were stimulated with IL-1β, and then assays were carried to assess the ability of Maresin 1 to reduce PGE2 production under the established pre-treatment regimen.
It was also determined that these mice expressed several SPM receptors (e.g., ALX, GPR18). Therefore, inventors proceeded with testing responses to compounds of Formula (I) in the mouse model.

[2] = test system: interleukin-6 (IL-6) production by human vulvar fibroblasts; assay: In vitro LPV model: IL-6 production by patient vestibular or vulvar fibroblasts; assay type: cell-based; conditions: for IL-6 levels: post-treatment regimen: IL-1β 30 min first, then 5 nM for 18 hours plus booster dose for 6 hr, already activated cells, FIG. 4D; for IL-6 production: pre-treatment regimen, 5 nM, activated with bradykinin (100 nM) 48 hr, vestibular and external vulvar fibroblasts, FIG. 4B
Experimental: (§1) FIGS. 4A, 4B, 4C, and 4D are a set of diagrams showing that PGE2 and IL-6 production is reduced by compounds of Formula (I). Patient vestibular or vulvar fibroblasts were pre-treated for 10 hours with Maresin land epi-Maresin 1 at a 5 nM concentration, then activated with IL-1β (Panel A; 10 pg/ml) or bradykinin (Panel B; 100 nM) for 48 hr. Culture media were collected and analyzed for PGE2 (Panel A) or IL-6 (Panel B) content. Patient fibroblasts were also activated first with IL-1β for 30 min then treated with 5 nM Maresin 1 for 18 hours, followed by a booster dose for 6 hr. Culture media were collected and analyzed for PGE2 (Panel C) or IL-6 (Panel D) content. Mean+/−SEM of n=3, ANOVA *p<0.05 vs. activation only (no compounds of Formula (I) (F (I))).
(§2) In this example, a fibroblast-based in vitro LPV model was established. Briefly, fibroblast strains were obtained from two regions (FIG. 1) of the lower genital tract of localized provoked vulvodynia (LPV) cases and pain-free controls in the manner described in Falsetta et al. Am J Obstet Gynecol 2015, vol. 213, pp. 38 e1-12 and Foster et al., Pain 2015, vol. 156, pp. 386-96.
(§3) Over 30 paired fibroblast strains obtained from LPV-afflicted cases (fulfilling Friedrich's Criteria)^25 and age/race-matched (critical variables influencing LPV),^26, 27 pain-free controls were obtained. All subjects who contributed to the library were premenopausal, denied oral corticosteroids, non-steroidal, immunomodulatory, or anti-inflammatory medication use, and reported an absence of systemic/cutaneous inflammatory conditions at the time of sample collection. Mechanical pain thresholds were determined (via a method of limits) (0.5-5 N) using a Wagner algometer. Fibroblast identity was confirmed by microscopy and fibroblast markers (vimentin, collagen); only low passage (˜4) cells are used.
(§4) In this example, assays were carried out to investigate the ability of compounds of Formula (I) to reduce pro-inflammatory and pro-pain mediator production from primary human cells in the in vitro LPV model described in Example 1.
(§5) The inventors used one of two treatment regimens proven effective in vulvar fibroblasts and other cells at low/nanomolar concentrations (1-100 nM): 1) overnight pre-treatment, followed by another treatment 30 min prior to stimulation with pro-inflammatory stimuli for 48 hr with a third dose of a compound of Formula (I) at 24 hr post-challenge, or 2) post-treatment a compound of Formula (I) after a 30 min pre-treatment with inflammatory stimuli, followed by a booster dose 18 hr later. Both treatment regimens are of interest, as compounds of Formula (I) are active throughout the inflammatory process.^5-7 Even the compound of Formula (I) administered after LPV onset are likely to prevent the worsening or spread of LPV pain.

PGE2 in vaginal lavage = assay: Mouse model of LPV: PGE2 content in vaginal lavage; assay type: in vivo, C57BL/6 mouse; conditions: C57BL/6 mice with established Zymosan-induced allodynia, topical daily 1 μg/mouse/day for 4 weeks, FIG. 8
Excerpt: FIG. 8 is a diagram showing that PGE2 in vaginal lavage is associated with pain threshold. After induction of allodynia for up to 6 weeks (indicated by reduced pain threshold, red line), Maresin 1 was applied to C57BL/6 mouse vulvas to reduce pain and increase pain threshold. PGE2 content in vaginal lavage samples (blue line) […], indicating pain-associated inflammation waning with treatment. SEM shown, n=8.
Using this approach, inventors confirmed that one could induce vulvar allodynia, measure pain responses via mechanical threshold determination, and assess treatment responses. However, inventors implemented several modifications to improve the robustness of the model including the following: 1) use a genetically tractable inbred strain; 2) validation of the use of an electronic von Frey (EvF) system; 3) assessment of the impact of behavioral conditioning on pain response; 4) weekly collection of vulvovaginal lavages for pro-inflammatory mediator quantification; and 5) testing the ability of a selected compound of Formula (I) (e.g., Maresin 1) to modulate pain and inflammation in our new model. […]

[3] = test system: prostaglandin E2 (PGE2) production by human vulvar fibroblasts; assay: In vitro LPV model: PGE2 production by patient vestibular or vulvar fibroblasts; assay type: cell-based; conditions: for PGE2 levels: post-treatment regimen: IL-1β 30 min first, then 5 nM for 18 hours plus booster dose for 6 hr, already activated cells, FIG. 4C; for PGE2 production: pre-treatment regimen, 5 nM, activated with IL-1β (10 pg/ml) 48 hr, vestibular and external vulvar fibroblasts, FIG. 4A
Experimental: as §1, §2, §3, §4, §5

[4] = test system: vulvar allodynia (pain threshold); assay: Mouse model of LPV: Zymosan-induced vulvar allodynia, pain threshold by electronic von Frey; assay type: in vivo, C57BL/6 mouse; conditions: C57BL/6 mice with established Zymosan-induced allodynia, topical daily 1 μg/mouse/day for 4 weeks
Excerpt: FIGS. 6A, 6B and 6C are a set of photographs and diagrams showing pain testing for in vivo mouse vulvodynia model. Panel A: After Zymosan injection, inflammation and redness become apparent. Arrow indicates injection site. Panel B: Image showing how an electronic von Frey hair (Mousemet) is used to apply force to the mouse vulva. Panel C: Schematic of in vivo mouse model to establish then resolve vulvar allodynia. FIG. 7 is a diagram showing representative pain profile for a C57BL/6 mouse. […] In the mouse model, Zymosan (a pro-inflammatory yeast cell wall preparation) was used to induce sustained vulvar allodynia, measured by pain threshold testing. Inventors initially used a manual von Frey system (MvF)^24, but later switched to an electronic system as detailed herein. […] However, inventors implemented several modifications to improve the robustness of the model including the following: 1) use a genetically tractable inbred strain; 2) validation of the use of an electronic von Frey (EvF) system; 3) assessment of the impact of behavioral conditioning on pain response; 4) weekly collection of vulvovaginal lavages for pro-inflammatory mediator quantification; and 5) testing the ability of a selected compound of Formula (I) (e.g., Maresin 1) to modulate pain and inflammation in our new model. […]

Row | SMILES | PGE2 responses following IL-1β treatment ([1]; pre-treated 18 hours, then 18 hours IL-1β (10 pg/ml)) | lowest dose with significant suppression of PGE2 response ([1]; pre-treatment regimen, IL-1β (10 pg/ml)) [nM] | IL-6 levels [2] | IL-6 levels ([2]; listed as Maresin-1) | IL-6 production [2] | PGE2 levels in vulvovaginal lavage (PGE2 in vaginal lavage) | PGE2 levels in vulvovaginal lavage (PGE2 in vaginal lavage; listed as Maresin-1) | PGE2 levels [3] | PGE2 levels ([3]; listed as Maresin-1) | PGE2 production [3] | pain threshold ([4]; FIG. 7, 8) | pain threshold ([4]; FIG. 7, 8, listed as Maresin-1)
1 | CC/C=C\C/C=C\C[C@H](O)\C=C/C=C/C=C/[C@H](O)C/C=C\CCC(=O)O [Maresin 1, 7R,14S-dihydroxy-docosa-4Z,8E,10E,12Z,16Z,19Z-hexaenoic acid] | significantly suppressed | 1 | significantly reduced | highly effective in reducing | significantly reduced | suppressed and maintained at levels below baseline | suppressing PGE2 levels | significantly reduced | highly effective in reducing | significantly reduced | complete restoration to the pre-induction thresholds; also recorded: values returned to baseline | increased pain thresholds
2 | CC/C=C\C/C=C\C[C@H](O)\C=C/C=C/C=C/[C@@H](O)C/C=C\CCC(=O)O [epi-Maresin 1, 7S,14S-dihydroxy-docosa-4Z,8E,10E,12Z,16Z,19Z-hexaenoic acid] |  |  |  |  | significantly reduced |  |  |  |  | significantly reduced |  | 
